{"source": "patent US6503927B1", "about": "“Amorphous paroxetine composition” (Pentech Pharmaceuticals, Inc., priority 1999, dated 2003)", "origin": "cited, not measured here", "conditions": "reported in U.S. Pat. No. 4,721,723 (Barnes et al.) and U.S. Pat. No. 5,672,612 (Ronsen et al.)", "note": "Where a name gives a salt, the structure may show the parent alone."}
{"smiles": "Fc1ccc([C@@H]2CCNC[C@H]2COc2ccc3c(c2)OCO3)cc1", "note": "[amorphous, paroxetine hydrochloride, paroxetine hydrochloride]", "values": [{"measurement": "hygroscopicity of the solid", "value": "undesirably hygroscopic"}]}
